# According to patent US20150057346A1, “METHODS OF MAINTAINING INTRAMUSCULAR MYOGLOBIN LEVELS, MAINTAINING MAXIMAL AEROBIC CAPACITY, AND ENHANCING THE OXIDATIVE CAPACITY OF MUSCLE IN A SUBJECT” (ABBOTT LABORATORIES, priority 2013, published 2015):
# How the values were obtained:
# [1] = system: Myoglobin; assay: Serum myoglobin levels before and after 10 days of bed rest (clinical study, RBM Human DiscoveryMAP); format: in vivo
# Protocol: Example 3 describes a clinical study that was conducted to evaluate the effects of 10 days of bed rest on healthy elderly subjects. The exemplary methods are based, at least in part, on inventors' discovery that serum myoglobin levels change by statistically significant amounts in 18 healthy elderly subjects undergoing 10 days of bed rest. The exemplary methods are also based, at least in part, on inventors' discovery that intervention with HMB altered the change in serum myoglobin levels.
# (§1) The 24 healthy subjects initially involved in the study were randomized into two groups. Subjects in the treatment group received two β-hydroxy-β-methylbutyrate (HMB) sachets containing 1.5 grams of Ca-HMB (TSI, Salt Lake City, Utah), 4 grams of maltodextrin, and 200 milligrams of calcium with additional sweetener and flavoring agents. Subjects in the control group received two control sachets that were identical to the HMB sachets with the exclusion Ca-HMB. This study was a double-blinded study. Neither the investigators nor the subjects were informed of the identity of any of the study products during the clinical portion of the study. Subjects were instructed to consume a sachet twice daily by mixing a sachet into a non-caloric, non-caffeinated, non-carbonated, non-milk-based beverage of their choice. Treatment with HMB or Control was initiated 5 days prior to bed rest and was continued until the end of the 10 day bed rest period.
# After a diet stabilization of 5 days (ambulatory period), subjects remained in bed continuously for 10 days. While confined to bed rest, subjects were allowed to use the bedside commode for urination or were taken in a wheelchair for toileting. Subjects were given the option of taking a sponge bath or showering in a wheelchair. Prophylactic measures were taken to detect and prevent deep vein thrombosis including a blood D-dimer test followed by an ultrasound examination if D-dimer test was positive, passive range of motion exercise during bed rest, the use of TED hose and SCD over the bed rest period. Subjects were offered medication to help mitigate reflux problems associated with being supine. Subjects were constantly monitored by nursing staff and received a daily physical examination by the study physician.
# Fasted blood samples were collected from subjects on Day 1 of bed rest and at the end of bed rest for measurement of biomarkers, including myoglobin.
# Rules Based Medicine (Myriad RBM, Inc., Austin, Tex.) data generated from the RBM Human DiscoveryMAP v1.0 consists of n=187 biomarkers measured in serum collected at two time points, pre-bed rest and post-bed rest from 18 elderly subjects. The distribution of each marker was evaluated. Each marker has a least detectable dose (LDD) value, defined as the mean+3 standard deviations (SD) of 20 blank samples. For any subject whose marker result was <LDD, the LDD value as provided by RBM was imputed. If the marker result was >LDD, the original result was used. Any marker in which >30% of all subject's results were imputed was excluded from further statistical analyses. Of the initial n=187 RBM markers, n=63 markers from the RBM dataset were excluded from further analyses, leaving n=124 markers for evaluation.
# The Control group was examined to determine the biomarkers that changed over bed rest. Individual univariate dependent t-tests were performed on each of the 124 markers. There were a total of 8 participants who had matched data over bed rest within the Control group.
# In order to assess the changes in the markers over bed rest that may be mediated by HMB intervention, individual univariate ANCOVA analyses were subsequently performed on each of the 13 (unadjusted) significant markers from the multiple dependent t-tests. Using a Bonferonni adjusted p-value of 0.0038 (0.05/13), 10 markers, including myoglobin, were significant.
# [2] = Body composition (lean mass by DXA) over 10 days of bed rest (clinical study); format: in vivo, human; settings: over 10 day bed rest, healthy elderly subjects
# Text: as §1, with “Subjects were instructed to consume a sachet twice daily by mixing a sachet into a non-caloric, non-caffeinated, non-carbonated, non-milk-based beverage of their choice. Treatment with HMB or Control was initiated 5 days prior to bed rest and was continued until the end of the 10 day bed rest period.” left out
# After a diet stabilization of 5 days (ambulatory period), subjects remained in bed continuously for 10 days. […] Subjects were constantly monitored by nursing staff and received a daily physical examination by the study physician.
# Body weight was measured at baseline and after bed rest to the nearest 0.1 kilogram on an Ohaus scale (Ohaus Corporation, model 15S, Florham Park, N.J.). Nude body weight was calculated as total body weight minus hospital robe weight. Body height was measured to the nearest 0.1 cm without shoes using a stadiometer. Body mass index (BMI) was calculated as weight/height^2 (kg/m^2). […]
# [3] = 10 subjects treated with HMB, after 10 days of bed rest
# [4] = serum, pre- to post-bed rest (10 days), n = 10
structure (smiles),measurement,setting,value
"CC(C)(O)CC(=O)O [HMB, β-hydroxy-β-methylbutyrate]",average decrease in blood levels of myoglobin,[1]; [3],10.2 ng/mL
same,decrease in blood levels of myoglobin (percent),[1]; [3],19%
same,Myoglobin Pre-bed rest Mean,"[1]; serum, healthy elderly subjects, n = 10, 1.5 g Ca-HMB sachet twice daily from 5 days prior to bed rest, Day 1 of bed rest",49.3 ng/mL
same,Myoglobin Post-bed rest Mean,"[1]; serum, healthy elderly subjects, n = 10, 1.5 g Ca-HMB sachet twice daily, end of 10 day bed rest",39.1 ng/mL
same,Myoglobin % Change,[1]; [4],−19 ± 6%
same,Myoglobin Change,[1]; [4],-10.2 ± 6.4 ng/mL
same,average loss of total lean mass,[2]; p=0.42 paired t-test,-0.17 ± 0.19 kg
same,average loss of leg lean mass,[2]; p=0.65 paired t-test,-0.08 ± 0.17 kg
